According to US10913781B2, “Pepducin design and use” (Tufts Medical Center, Inc., priority 2011, dated 2021):
Peptide text beside a SMILES is read from it. * marks the point of attachment. Palmitoyl = CCCCCCCCCCCCCCCC(=O)*

Experiments:
Assay type in all cases: cell-based
PAR1 = target: T1, PAR1 (Homo sapiens, UniProt P25116); assay: Migration of primary patient lung tumor cells; set-up: endogenous in cells; host or cells: A549, HOP62, H1299, H522, H226, HOP92 lung carcinoma lines
T1 sequence (P25116 22-425): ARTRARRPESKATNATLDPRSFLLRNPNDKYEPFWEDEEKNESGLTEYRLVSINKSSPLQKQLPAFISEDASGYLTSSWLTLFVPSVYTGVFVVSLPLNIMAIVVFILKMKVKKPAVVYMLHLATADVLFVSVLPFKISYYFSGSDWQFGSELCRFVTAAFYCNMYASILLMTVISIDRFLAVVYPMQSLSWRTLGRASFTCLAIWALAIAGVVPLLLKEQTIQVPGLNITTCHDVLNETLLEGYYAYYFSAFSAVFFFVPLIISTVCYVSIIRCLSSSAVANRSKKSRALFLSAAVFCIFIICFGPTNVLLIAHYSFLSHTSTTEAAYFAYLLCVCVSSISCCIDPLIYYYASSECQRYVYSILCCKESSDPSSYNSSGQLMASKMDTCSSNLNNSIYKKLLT
Experimental: FIG. 12 illustrates that PAR1 is a promigratory factor in lung cancer cells. (A-F): Inhibition of lung cancer migration in adenocarcinomas A549, HOP62, H1299 and H522, H226 squamous, and HOP92 large cell using PAR1 pepducins. Pepducins at […] (P1pal-7, P1pal-10S, P1pal-i1-11, or negative control P1pal-19EE) were added to the lower well. (G): Cell from primary lung tumors or nonmalignant control were pretreated with PAR1 pepducins and migration was determined (*P<0.05, **P<0.01).
Further experiments were carried out to determine whether migration of the primary carcinoma cell lines isolated from lung tumors could be inhibited by PAR1 pepducins (FIG. 12G). […] Likewise, the RWJ-56110 small-molecule antagonist of PAR1 (Andrade-Gordon, et al., Proc. Natl Acad Sci USA, 96 (1999), pp. 12257-12262) suppressed up to 55% of the migration of primary lung tumor cells toward NIH-3T3 conditioned media. The PAR1 antagonist pepducin P1pal-7 and P1pal-i1-11 had no effect on the low-expressing PAR1 cell line derived from benign lung tissue, which migrated poorly (FIG. 12G).

PAR2 [1] = target: T2, PAR2 (Homo sapiens, UniProt P55085); assay: Calcium flux screen for PAR2 pepducin agonist and antagonist activity in SW620 cells; set-up: SW620 colon adenocarcinoma cells that endogenously express PAR2; endogenous in cells; host or cells: SW620 (in A7 the SW620 cells were additionally stably transfected with PAR1); conditions: 3-4 μM and 14-15 μM pepducin
Experimental: (A) Agonist and antagonist activity of third intracellular (i3) loop PAR2 pepducins (structure shown on top) using calcium flux assays with SW620 colon adenocarcinoma cells that endogenously express PAR2. Each column of three calcium flux traces corresponds to the i3 pepducin sequence shown above. The top row is the agonist activity of 3-4 μM pepducin and the middle row is the agonist activity of 14-15 μM pepducin. […] Final concentration of DMSO vehicle was 0.2%. […] (C) Agonist activity for each pepducin from (A) is reported as initial velocity of calcium flux at 4 μM pepducin (†), or at 14-15 μM pepducin (‡).

PAR2 [2] = target: T2, PAR2; assay: Human neutrophil chemotaxis toward mast cell conditioned media (PAR2 pepducin); set-up: SW620 colon adenocarcinoma cells that endogenously express PAR2; endogenous in cells; host or cells: SW620 (in A7 the SW620 cells were additionally stably transfected with PAR1); conditions: 1 mM P2pal-18S; 30 min
Experimental: (A) Mast cells were treated with 2 mg/mL of mast cell degranulating agent 48/80 or 2% 1-carrageenan/4% kaolin. […] (B) P2pal-18S inhibits human neutrophil chemotaxis (n=6) to mast cell media. Human neutrophils were incubated with […] P2pal-18S, or […] mast cell tryptase inhibitor APC-366 and allowed to migrate 30 min toward CM from mast cells. (C) C57BL/6 mice (n=5) were pretreated with the tryptase inhibitor APC-366 (5 mg/kg, s.c.) or vehicle (20% DMSO) and then challenged with intraplantar injection of 1-carrageenan/kaolin. (D) Mast cell conditioned media (30 μL of 1-carrageenan/kaolin stimulated media) was injected into the hindpaws of C57BL/6 mice treated with 10 mg/kg P2pal-18S or vehicle (n=5). Data represent mean±SEM. #, P=0.07, *, P<0.05 and **, P<0.005. (E) Mast cell-deficient mice have a significant reduction in 1-carrageenan/kaolin induced paw edema (8 h time point, n=4-6) as compared to littermate controls. Mast-cell deficient mice or littermate controls with intact mast cells were treated with P2pal-18S (10 mg/kg, s.c.) or vehicle and hind paws challenged with 1-carrageenan/kaolin irritant. Error bars represent mean±SEM. […]

T2 sequence (P55085 26-397): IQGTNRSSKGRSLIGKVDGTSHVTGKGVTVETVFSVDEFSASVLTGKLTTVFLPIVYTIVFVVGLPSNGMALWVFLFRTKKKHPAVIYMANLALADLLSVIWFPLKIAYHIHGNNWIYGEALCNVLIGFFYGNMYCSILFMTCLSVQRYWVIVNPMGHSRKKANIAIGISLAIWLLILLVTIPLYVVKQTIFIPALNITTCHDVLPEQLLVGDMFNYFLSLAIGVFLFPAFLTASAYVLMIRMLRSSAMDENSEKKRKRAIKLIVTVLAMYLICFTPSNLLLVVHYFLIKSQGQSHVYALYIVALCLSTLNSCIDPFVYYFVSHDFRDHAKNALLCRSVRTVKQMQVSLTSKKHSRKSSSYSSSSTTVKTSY

SMILES | Effect on migration of low-expressing PAR1 cell line derived from benign lung tissue (PAR1) | Agonist activity (calcium flux) (PAR2 [1]) | Inhibition of chemotactic migration toward tryptase-containing mast cell media (PAR2 [2])
CCCCCCCCCCCCCCCC(=O)N[C@H](C(=O)N[C@@H](CC(C)C)C(=O)N[C@@H](CCCCN)C(=O)N[C@@H](CCSC)C(=O)N[C@@H](CCCCN)C(=O)N[C@H](C(=O)N[C@@H](CCCCN)C(=O)N[C@@H](CCCCN)C(=O)N1CCC[C@H]1C(=O)N[C@@H](C)C(=O)N[C@H](C(N)=O)C(C)C)C(C)C)[C@@H](C)CC [P1pal-i1-11] (Palmitoyl-ILKMKVKKPAV-NH2) | no effect | – | –
CCCCCCCCCCCCCCCC(=O)N[C@@H](CCCNC(=N)N)C(=O)N[C@@H](CO)C(=O)N[C@@H](CO)C(=O)N[C@@H](C)C(=O)N[C@@H](CCSC)C(=O)N[C@@H](CC(=O)O)C(=O)N[C@@H](CCC(=O)O)C(=O)N[C@@H](CC(N)=O)C(=O)N[C@@H](CO)C(=O)N[C@@H](CCC(=O)O)C(=O)N[C@@H](CCCCN)C(=O)N[C@@H](CCCCN)C(=O)N[C@@H](CCCNC(=N)N)C(=O)N[C@@H](CCCCN)C(=O)N[C@@H](CO)C(=O)N[C@@H](C)C(=O)N[C@H](C(=O)N[C@@H](CCCCN)C(N)=O)[C@@H](C)CC [P2pal-18S] | – | no detectable or otherwise significant agonist activity | completely inhibited
